How the values were obtained:
cows = assay: In vivo experiment, single oral bolus in cows: serum calcium and phosphate
Text: The control group only received pectin.

in vivo = conditions: female, brown, Fleckvieh and Holstein, cow, serum, po, 500 ng
Procedure: Twenty-five cows of the races brown, Fleckvieh and Holstein of a weight of approximately 500-600 kg weight and including lactating and non-lactating subjects were allocated to 5 treatment groups as detailed in Table 6 blow. The animals were given a single dose of the test preparation orally per bolus. Blood was taken at time 0 (before application) and at days 1, 2, 3, 4, 5, 7, 9 and 11 following application. From the blood, serum was prepared and calcium (total), phosphate and 1,25-(OH)2 vitamin D3 was analyzed according to established clinico-chemical methods.
Treatment: all test preparations were applied to the animal as one single bolus in a gelatine capsule (length 7 cm, diameter 2.2 cm and volume 24 mL, Capsula GmbH, Ratingen, Germany) with the aid of a usual bolus applicator. The volume that was not filled with tablets was filled up with pectin as inert excipient. The control group only received pectin.
The boluses contained, in accordance with the treatment group, instant release tablets as described in Example 3 (groups 2 and 4) and retard release tablets as prepared in Example 4 (groups 1 and 4).

[1] = day 0 (before application), n = 5, single oral bolus
[2] = day 2, n = 5, single oral bolus
[3] = day 3, n = 5, single oral bolus
[4] = day 4, n = 5, single oral bolus
[5] = day 5, n = 5, single oral bolus
[6] = day 7, n = 5, single oral bolus
[7] = day 9, n = 5, single oral bolus
[8] = day 11, n = 5, single oral bolus

Structure (SMILES): C=C1/C(=C\C=C2/CCC[C@]3(C)[C@@H]([C@H](C)CCCC(C)(C)O)CC[C@@H]23)C[C@@H](O)C[C@@H]1O [Group 3, 1,25-dihydroxyvitamin D3]
- Serum calcium (mean ± standard deviation) (cows; [1]): 2.40 ± 0.2 ^ mmol/L
- Serum phosphate (mean ± standard deviation) (cows; [1]): 2.30 ± 0.07 mmol/L
- Serum calcium (mean ± standard deviation) (cows; day 1, n = 5, single oral bolus): 2.64 ± 0.05 E mmol/L
- Serum calcium (mean ± standard deviation) (cows; [2]): 2.67 ± 0.09 Ed mmol/L
- Serum phosphate (mean ± standard deviation) (cows; [2]): 2.81 ± 0.25 ED mmol/L
- Serum calcium (mean ± standard deviation) (cows; [3]): 2.72 ± 0.09 E mmol/L
- Serum phosphate (mean ± standard deviation) (cows; [3]): 3.05 ± 0.19 Ed mmol/L
- Serum calcium (mean ± standard deviation) (cows; [4]): 2.72 ± 0.06 E mmol/L
- Serum phosphate (mean ± standard deviation) (cows; [4]): 3.24 ± 0.34 E mmol/L
- Serum calcium (mean ± standard deviation) (cows; [5]): 2.61 ± 0.02 E mmol/L
- Serum phosphate (mean ± standard deviation) (cows; [5]): 2.60 ± 0.32 E mmol/L
- Serum calcium (mean ± standard deviation) (cows; [6]): 2.57 ± 0.06 e^ mmol/L
- Serum phosphate (mean ± standard deviation) (cows; [6]): 2.43 ± 0.23 e mmol/L
- Serum calcium (mean ± standard deviation) (cows; [7]): 2.56 ± 0.09 ^ mmol/L
- Serum phosphate (mean ± standard deviation) (cows; [7]): 2.05 ± 0.44 mmol/L
- Serum calcium (mean ± standard deviation) (cows; [8]): 2.45 ± 0.02 ^ mmol/L
- Serum phosphate (mean ± standard deviation) (cows; [8]): 2.10 ± 0.16 mmol/L
- concentration at 0 day (in vivo): 0.02 ng/mL
- concentration at 1 day (in vivo): 0.243 ng/mL
- concentration at 2 day (in vivo): 0.15 ng/mL
- concentration at 3 day (in vivo): 0.056 ng/mL
- concentration at 4 day (in vivo): 0.04 ng/mL
- concentration at 5 day (in vivo): 0.046 ng/mL
- concentration at 7 day (in vivo): 0.03 ng/mL
- concentration at 9 day (in vivo): 0.023 ng/mL
- concentration at 11 day (in vivo): 0.025 ng/mL

Source: patent US9757415B2, “Composition comprising solanum glaucophyllum for preventing and/or treating hypocalcaemia and for stabilizing blood calcium levels” (HERBONIS AG, priority 2009, dated 2017)
